Like-named read-outs stand apart in the source and are kept apart here.
Columns and labels:
[1] = test system: Staphylococcus aureus SAU.42 (ATCC 29213); format: cell-based
Experimental: (§1) Compounds according to Formula I were tested for antimicrobial activity against a panel of organisms. Aerobic organisms, Staphylococcus aureus, Enterococcus faecalis and E. faecium, were tested by broth microdilution according to Clinical and Laboratory Standards Institute (CLSI) document M7-A7 (Clinical and Laboratory Standards Institute. Methods for Dilution Antimicrobial Susceptibility Tests for Bacteria that Grow Aerobically; Approved Standard—Seventh Edition. CLSI document M7-A7 [ISBN 1-56238-587-9]. Clinical and Laboratory Standards Institute, 940 West Valley Road, Suite 1400, Wayne, Pa. 19087-1898 USA, 2006) with modifications as described below. Mueller Hinton Broth (MHBc) was supplemented with 50 mg/L calcium (equivalent to human physiological levels of calcium) and assay plates were incubated 18-20 hours at 37° C. with aeration (200 rpm).
(§2) In all cases the final concentration of dimethyl sulfoxide incubated with cells is less than or equal to 1%. For minimum inhibitory concentration (MIC) calculations, 2-fold dilutions of compounds were added to wells of a microtiter plate containing 5×10^5 bacteria in a final volume of 100 μL of media. Following incubation, (18-20 hours at 37° C. with aeration at 200 rpm) growth was confirmed visually by placing plates over a viewing apparatus (stand with a mirror underneath) and then the optical density (OD600) was measured using a SpectraMax 340PC^384 plate reader. Growth was defined as turbidity that could be detected with the naked eye or achieving minimum OD600of 0.1. MIC values (in μg/mL) were defined as the lowest concentration producing no visible turbidity.

[2] = test system: Staphylococcus aureus SAU.278, Daptomycin resistant mutant (D10); format: cell-based; settings: MHBc with 50 mg/L calcium, 18-20 hours at 37° C.
Experimental: as §1, §2

[3] = test system: Staphylococcus aureus SAU.399 (ATCC 43300), Methicillin and Oxacillin Resistant; format: cell-based; settings: ATCC 43300
Experimental: as §1, §2

[4] = test system: Enterococcus faecalis EFS.201 (ATCC 49452); format: cell-based
Experimental: as §1, §2

[5] = test system: Enterococcus faecium EFM.384, Daptomycin resistant mutant (14-A); format: cell-based; settings: MHBc with 50 mg/L calcium, 18-20 hours at 37° C.
Experimental: as §1, §2

[6] = test system: Enterococcus faecalis EFS.312, Daptomycin resistant mutant (EFA); format: cell-based; settings: MHBc with 50 mg/L calcium, 18-20 hours at 37° C.
Experimental: as §1, §2

[7] = test system: Enterococcus faecium EFM.14 (ATCC 6569); format: cell-based
Experimental: as §1, §2

[8] = test system: Clostridium difficile
[9] = MHBc with 50 mg/L calcium, 18-20 hours at 37° C.

| SMILES | Sa42 MIC ([1]; ATCC 29213) [µg/mL] | Sa278 MIC [2] [µg/mL] | Sa399 MIC [3] [µg/mL] | Efs201 MIC ([4]; ATCC 49452) [µg/mL] | Efm384 MIC [5] [µg/mL] | Efs312 MIC [6] [µg/mL] | Efm14 MIC ([7]; ATCC 6569) [µg/mL] | Sa42 MIC [1, 9] [µg/mL] | Efs201 MIC [4, 9] [µg/mL] | Efm14 MIC [7, 9] [µg/mL] | C. diff MIC90 [8] [µg/mL] |
| --- | --- | --- | --- | --- | --- | --- | --- | --- | --- | --- | --- |
| CCCCCc1ccc(C(=O)N[C@@H](Cc2c[nH]c3ccccc23)C(=O)N[C@H](CC(N)=O)C(=O)N[C@@H](CC(=O)O)C(=O)N[C@@H]2C(=O)NCC(=O)N[C@@H](CCCN)C(=O)N[C@@H](CC(=O)O)C(=O)N[C@H](C)C(=O)N[C@@H](CC(=O)O)C(=O)NCC(=O)N[C@H](CO)C(=O)N[C@@H]([C@H](C)CC(=O)O)C(=O)N[C@@H](CC(=O)c3ccccc3N)C(=O)O[C@@H]2C)cc1 [Compound 31] | 4 | >32 | 4 | 16 | >32 | >32 | 16 |  |  |  |  |
| CCCCCCCCCCCC(=O)N[C@@H](Cc1c[nH]c2ccccc12)C(=O)N[C@H](CC(N)=O)C(=O)N[C@@H](CC(=O)O)C(=O)N[C@@H]1C(=O)NCC(=O)N[C@@H](CCCN)C(=O)N[C@@H](CC(=O)O)C(=O)N[C@H](C)C(=O)N[C@@H](CC(=O)O)C(=O)NCC(=O)N[C@H](CO)C(=O)N[C@@H]([C@H](C)CC(=O)O)C(=O)N[C@@H](CC(=O)c2ccccc2N)C(=O)O[C@@H]1C [Compound 3] | 0.5 | 1 | 1 | 0.5 | 4 | 32 | 1 |  |  |  |  |
| C[C@H](CC(=O)O)[C@@H]1NC(=O)[C@@H](CO)NC(=O)CNC(=O)[C@H](CC(=O)O)NC(=O)[C@@H](C)NC(=O)[C@H](CC(=O)O)NC(=O)[C@H](CCCN)NC(=O)CNC(=O)[C@@H](NC(=O)[C@H](CC(=O)O)NC(=O)[C@@H](CC(N)=O)NC(=O)[C@H](Cc2c[nH]c3ccccc23)NC(=O)Cc2ccc(-c3ccc(Cl)cc3)cc2)[C@@H](C)OC(=O)[C@H](CC(=O)c2ccccc2N)NC1=O [Compound 65] | 2 | 16 | 2 | 8 | >32 | >32 | 8 |  |  |  |  |
| CC(C)CCCCCCC(=O)N[C@@H](Cc1c[nH]c2ccccc12)C(=O)N[C@H](CC(N)=O)C(=O)N[C@@H](CC(=O)O)C(=O)N[C@@H]1C(=O)NCC(=O)N[C@@H](CCCN)C(=O)N[C@@H](CC(=O)O)C(=O)N[C@H](C)C(=O)N[C@@H](CC(=O)O)C(=O)NCC(=O)N[C@H](CO)C(=O)N[C@@H]([C@H](C)CC(=O)O)C(=O)N[C@@H](CC(=O)c2ccccc2N)C(=O)O[C@@H]1C [Compound 9] | 0.5 | 8 | 0.5 | 4 | 32 | >32 | 4 |  |  |  |  |
| CCCCOc1ccc(-c2ccc(C(=O)N[C@@H](Cc3c[nH]c4ccccc34)C(=O)N[C@H](CC(N)=O)C(=O)N[C@@H](CC(=O)O)C(=O)N[C@@H]3C(=O)NCC(=O)N[C@@H](CCCN)C(=O)N[C@@H](CC(=O)O)C(=O)N[C@H](C)C(=O)N[C@@H](CC(=O)O)C(=O)NCC(=O)N[C@H](CO)C(=O)N[C@@H]([C@H](C)CC(=O)O)C(=O)N[C@@H](CC(=O)c4ccccc4N)C(=O)O[C@@H]3C)cc2)cc1 [Compound 60] | 1 | 8 | 4 | 4 | 16 | >32 | 4 |  |  |  |  |
| CCCCCC1CCC([C@H]2CC[C@H](C(=O)N[C@@H](Cc3c[nH]c4ccccc34)C(=O)N[C@H](CC(N)=O)C(=O)N[C@@H](CC(=O)O)C(=O)N[C@@H]3C(=O)NCC(=O)N[C@@H](CCCN)C(=O)N[C@@H](CC(=O)O)C(=O)N[C@H](C)C(=O)N[C@@H](CC(=O)O)C(=O)NCC(=O)N[C@H](CO)C(=O)N[C@@H]([C@H](C)CC(=O)O)C(=O)N[C@@H](CC(=O)c4ccccc4N)C(=O)O[C@@H]3C)CC2)CC1 (stereo partly drawn) [Compound 20] | 0.5 | 8 | 2 | 0.5 |  | 4 |  |  |  |  |  |
| CCCCCCCC(C)C(=O)N[C@@H](Cc1c[nH]c2ccccc12)C(=O)N[C@H](CC(N)=O)C(=O)N[C@@H](CC(=O)O)C(=O)N[C@@H]1C(=O)NCC(=O)N[C@@H](CCCN)C(=O)N[C@@H](CC(=O)O)C(=O)N[C@H](C)C(=O)N[C@@H](CC(=O)O)C(=O)NCC(=O)N[C@H](CO)C(=O)N[C@@H]([C@H](C)CC(=O)O)C(=O)N[C@@H](CC(=O)c2ccccc2N)C(=O)O[C@@H]1C (stereo partly drawn) [Compound 13] | 2 | 32 | 1 | 16 | >32 | >32 | 16 |  |  |  |  |
| CCCCCCCCCOc1ccc(C(=O)N[C@@H](Cc2c[nH]c3ccccc23)C(=O)N[C@H](CC(N)=O)C(=O)N[C@@H](CC(=O)O)C(=O)N[C@@H]2C(=O)NCC(=O)N[C@@H](CCCN)C(=O)N[C@@H](CC(=O)O)C(=O)N[C@H](C)C(=O)N[C@@H](CC(=O)O)C(=O)NCC(=O)N[C@H](CO)C(=O)N[C@@H]([C@H](C)CC(=O)O)C(=O)N[C@@H](CC(=O)c3ccccc3N)C(=O)O[C@@H]2C)cc1 [Compound 37] |  | 0.25 |  |  | 2 | 2 |  | 0.25 | 0.5 | 0.5 | 1 |
| C[C@H](CC(=O)O)[C@@H]1NC(=O)[C@@H](CO)NC(=O)CNC(=O)[C@H](CC(=O)O)NC(=O)[C@@H](C)NC(=O)[C@H](CC(=O)O)NC(=O)[C@H](CCCN)NC(=O)CNC(=O)[C@@H](NC(=O)[C@H](CC(=O)O)NC(=O)[C@@H](CC(N)=O)NC(=O)[C@H](Cc2c[nH]c3ccccc23)NC(=O)c2ccc(-c3ccc(Cl)cc3)cc2)[C@@H](C)OC(=O)[C@H](CC(=O)c2ccccc2N)NC1=O [Compound 68] | 4 | 32 |  | 16 | >32 | >32 | 16 |  |  |  | 16 |
| CC(C)C1CCC(CCCC(=O)N[C@@H](Cc2c[nH]c3ccccc23)C(=O)N[C@H](CC(N)=O)C(=O)N[C@@H](CC(=O)O)C(=O)N[C@@H]2C(=O)NCC(=O)N[C@@H](CCCN)C(=O)N[C@@H](CC(=O)O)C(=O)N[C@H](C)C(=O)N[C@@H](CC(=O)O)C(=O)NCC(=O)N[C@H](CO)C(=O)N[C@@H]([C@H](C)CC(=O)O)C(=O)N[C@@H](CC(=O)c3ccccc3N)C(=O)O[C@@H]2C)CC1 (stereo partly drawn) [Compound 21] | 0.063 | 2 | 1 | 0.25 |  | 32 |  |  |  |  |  |
| C[C@H](CC(=O)O)[C@@H]1NC(=O)[C@@H](CO)NC(=O)CNC(=O)[C@H](CC(=O)O)NC(=O)[C@@H](C)NC(=O)[C@H](CC(=O)O)NC(=O)[C@H](CCCN)NC(=O)CNC(=O)[C@@H](NC(=O)[C@H](CC(=O)O)NC(=O)[C@@H](CC(N)=O)NC(=O)[C@H](Cc2c[nH]c3ccccc23)NC(=O)CCCCCCc2ccccc2)[C@@H](C)OC(=O)[C@H](CC(=O)c2ccccc2N)NC1=O [Compound 47] |  | >32 | 16 |  | >32 | >32 | >32 |  |  |  | 8 |

Reference: patent US20150337013A1, “NOVEL ANTIBACTERIAL AGENTS FOR THE TREATMENT OF GRAM POSITIVE INFECTIONS” (priority 2008, published 2015)
